Consider 4 compounds from patent US8349792B2, “Combination comprising CNDAC (2′-cyano-2′-deoxy-N4-palmitoyl-1-beta-D-arabinofuranosyl-cytosine) and a cytotoxic agent” (priority 2006, dated 2013).

The subject of data set [1] is Hut78 cells. Put plainly: Western blotting analysis in Hut78 cells. In kind it is cell-based. The settings on record: 1×IC50, western blot. Here is the method: Protein lysates were generated from 10 cm plates that were seeded at approximately 5×10^5 cells/well, in medium containing 10% FCS. […] Cells were collected by centrifugation (5 min×2,000 g), washed once with ice-cold buffer A (50 mM HEPES, pH 7.0, 20 mM NaCl, 1 mM DTT, protease inhibitors, 10 mM Sodium pyrophosphate, 10 mM Sodium Fluoride and 1 mM Sodium Orthovanadate), and resuspended in 0.3 ml of the same buffer. Cells were lysed by sonication (2×3 s bursts with probe sonicator), and the protein concentration of each tube determined using the BCA assay. Lysates (20-30 μg protein loaded/well) were resolved on Bis-Tris gels containing 10 or 12% acrylamide and transferred to nitrocellulose for analysis by western blotting. Membranes were blocked for 1 h at room temperature in PBS containing 0.02% (v/v) Tween 20 and 5% (w/v) fat-free dried milk. Antibody incubations were carried out overnight at 2-8° C. in PBS containing 0.02% (v/v) Tween 20 (PBST) containing 3% (w/v) dried milk. Nitrocellulose membranes were probed with the following antibodies:
Membranes were then washed three times in PBST, and then incubated for 1 h with the appropriate horseradish peroxidase-conjugated secondary antibody (Perbio) at 1:5,000 dilution. Finally, the membranes were washed three times in PBST prior to development using an enhanced chemiluminescence kit (Amersham Corporation, Buckinghamshire, U.K.) or the Millipore Immobilon HRP substrate.
Cells were harvested and the resulting cell lysates analysed by western blotting with the indicated antibodies. Data are representative of two independent experiments (FIG. 5). […] Homologous recombination is one of the major repair pathways for double strand DNA breaks, and RAD51 plays a key role in homologous recombination.

In data set [2] the test system is Hut78 cells. Put plainly: Flow cytometry, Annexin V staining. Format: cell-based. The settings on record: IC50, 24 h, 48 h or 72 h. Here is the method:
(§1) Hut78 cells were seeded in 10 cm plates at approximately 5×10^5 cells/plate and left to settle for 2 h. […] After treatment, cells were harvested and cell cycle analysis was carried our. Cells were pelleted by centrifugation, washed twice in PBS and then fixed overnight in 70% (v/v) ethanol at −20° C. Cells were stained with 50 μg/ml propidium iodide for 20 min and the DNA content analysed on the flow cytometer. Annexin V staining was performed as indicated in manufacturer's instructions, on live, non-fixed cells.
Cells were then harvested, stained with annexin V and analysed on the flow cytometer. Data are representative of two independent experiments. Annexin V labels live cells that are undergoing apoptosis or already dead. […] The synergy detected in the calcusyn analysis (Table 1) is therefore likely to be mainly due to inhibition of cell proliferation.

The test system of data set [3] is Hut78 cells. The data set can be described thus: 72 h IC50 by Alamar blue assay in Hut78. In kind it is cell-based. The settings on record: read-out: 1×IC50 value in Hut78 cells. Here is the method:
Experiments were carried out in 96-well plates and the cell lines seeded at a density of 2500/well for H1299, 2500/well or 3000/well for H460, 5000/well for HL-60 cells, and 8,000 cells/well for Hut78, MV4-11 and PL-21 cells. […] Each compound was then tested in combination with CNDAC using three different treatment regimes: concomitant, CNDAC pre-treatment followed by HDAC inhibitor/topoisomerase inhibitor and CNDAC treatment after pre-treatment with HDAC inhibitor/topoisomerase inhibitor.
(The colour change of resazurin is a common sign of viable cells or microbes.)

The subject of data set [4] is Hut78 cells. The data set can be described thus: Flow cytometry, propidium iodide DNA content (sub-G1). The settings on record: for sub-G1 cells, dose dependence: 0.5×-2×IC50, 72 h; for sub-G1 cells, time dependence: 1×IC50, 16, 24, 48 or 72 h. In kind it is cell-based. Here is the method: as §1
After drug treatment, cells were then harvested, stained with propidium iodide and their DNA content analysed by flow cytometry.
After treatment, cells were then harvested, stained with propidium iodide and their DNA content analysed by flow cytometry.
In general terms: In flow cytometry, cells or beads pass a laser one at a time.

For the next data set, the system named is p388 mouse leukaemia. Put plainly: p388 mouse leukaemia xenograft, survival. Format: in vivo. The settings on record: P388 mouse model; CYC682 20 mg/kg PO QD×5×2, SAHA 75 mg/kg IP QD×12; compared to vehicle control. The source says: The p388 mouse leukaemia xenograft assesses drug combinations by the survival times of the mice in the various treatment arms.

Another data set deals with H358 cells. Put plainly: H358 xenograft tumour growth. Format: in vivo, mice (nu/nu). The settings on record: for mean tumour volume: day 22, sapacitabine 15 mg/kg oral, irinotecan 50 mg/kg i.p. weekly, SAHA 50 mg/kg oral. Here is the method:
Female mice (nu/nu) were obtained from Harlan. Animals were injected subcutaneously with ˜1×10^7 H358 cells/mouse at a single site on their flanks. Tumours were allowed to grow to ˜127 mm^3 before being pair-matched by tumour size into treatment groups (10 mice/group). One group was treated with sapacitabine (15 mg/kg) once daily by oral gavage for five consecutive days followed by a two day break; the treatment was then repeated for a total of three cycles. Irinotecan (50 mg/kg) was treated once weekly by intraperitoneal injection for three weeks. […] Mice were weighed at least twice a week to assess toxicity of the treatments and the tumours were measured with calipers at least twice a week to determine tumour growth. The tumour measurements were converted into volumes using the formula: tumour volume (mm^3)=width^2 (mm)×length (mm)×0.52. The percent tumour growth inhibition was determined with the formula: 1−(Change in treated tumour volume/change in control tumour volume)×100%. Statistical significance was determined using a two sided unpaired Student's T-test.

For a further data set, the system named is colon cancer. The settings on record: model of colon cancer, cited from earlier work.
The conditions of data set [5]: human, in vivo; cited from earlier work.

The IC50 is the concentration that inhibits the measured activity by half. As for `N#C[C@H]1[C@H](O)[C@@H](CO)O[C@H]1n1ccc(N)nc1=O` [CNDAC, 1-(2-C-cyano-2-deoxy-β-D-arabino-pentafuranosyl)-cytosine], in the data set with Hut78 cells [1], the “H2A.X phosphorylation at serine 139” value is on record as “increase in H2A.X phosphorylation at serine 139” and the Mcl-1 entry is “decrease in Mcl-1”. Besides, the “apoptotic/dead cells (annexin V)” value in the data set on Hut78 cells [2] is given as “time-dependent increase in apoptotic/dead cells”. In addition, in the data set with Hut78 cells [3], the IC50 is 360 nM. Besides, in the data set on Hut78 cells [4], the “sub-G1 cells, dose dependence” value is reported as “dose-dependent increase in sub-G1 cells” and the “sub-G1 cells, time dependence” value was “time-dependent increase in sub-G1 cells that became apparent by 48 h treatment”. Besides, the “sub-G1 cells, share of the cell population” value in the data set on Hut78 cells [4] (1×IC50, by 72 h) was ~30%.

Take `O=C(CCCCCCC(=O)Nc1ccccc1)NO` [SAHA, suberoylanilide hydramic acid, reference compound]: the survival entry in the data set with p388 mouse leukaemia is recorded as “very little effect on survival”. Also, the “effect on tumour growth (in words)” value in the data set with H358 cells (day 22) was “no effect on tumour growth”. In addition, the mean tumour volume in the data set on H358 cells is 517 mm^3. For the same compound, the “Acetyl-histone H4” value in the data set with Hut78 cells [1] is listed as “increase in Acetyl-histone H4”. The “apoptotic/dead cells (annexin V)” value with Hut78 cells [2] is on record as “negligible increase in dead/dying cells”. In the data set on Hut78 cells [4], the “sub-G1 cells, dose dependence” value is listed as “little effect on the cell cycle, except at 2×IC50, where it induced a small increase in sub-G1 cells” and the “sub-G1 cells, time dependence” value is given as “small increase in sub-G1 cells”.

As for `CCc1c2c(nc3ccc(OC(=O)N4CCC(N5CCCCC5)CC4)cc13)-c1cc3c(c(=O)n1C2)COC(=O)[C@]3(O)CC` [irinotecan], the “tumour growth inhibition (% TGI)” value with H358 cells (day 22) is ~75%.

As for `CCCCCCCCCCCCCCCC(=O)Nc1ccn([C@@H]2O[C@H](CO)[C@@H](O)[C@@H]2C#N)c(=O)n1` [sapacitabine, 2′-cyano-2′-deoxy-N^4-palmitoyl-1-β-D-arabinofuranosylcytosine], the anticancer activity entry in the data set with colon cancer is “strong anticancer activity”. The “increasing survival and preventing the spread of colon cancer metastases to the liver” value in the data set with colon cancer (versus gemcitabine or 5-FU) was “superior to either gemcitabine or 5-FU”. Further, the survival entry in the data set with p388 mouse leukaemia is given as “significant increase in the survival time”. In the data set on H358 cells (day 22), the “tumour growth inhibition (% TGI)” value is ~75%. Moreover, the mean tumour volume in the data set on H358 cells is reported as 229 mm^3. Besides, the “tolerability, dose limiting toxicity” value in data set [5] is “well tolerated in humans, with myelosuppression as the dose limiting toxicity”.
